Literature values as cited in patent US8410056B2, “Pro-oxidant anti-cancer compounds” (priority 2006, dated 2013).

Key:
LNCaP, PC-3 = conditions: Shiau et al, 2006; cited from earlier work
MDA-MB-435 = conditions: cited from earlier work
B16(F10) = conditions: B16(F10); He et al, 1997; cited from earlier work
MCF7 = conditions: cited from earlier work
[1] = system: neoplastic + SA mammary epithelial cells; conditions: cited from earlier work

Row | Structure (SMILES) | IC50 (LNCaP, PC-3) | IC50 (MDA-MB-435) | IC50 (B16(F10)) | IC50 (MCF7) | IC50 [1]
1 | Cc1c(C)c2c(c(C)c1OC(=O)CCC(=O)O)CCC(C)(C)O2 [Compound 46] | > 100 µM | – | – | – | –
2 | CC(C)=CCC/C(C)=C/CC/C(C)=C/CC[C@]1(C)CCc2c(C)c(O)c(C)c(C)c2O1 [Compound 53, α-tocotrienol] | – | 210 µM | 110 µM | 14 µM | –
3 | CC(C)=CCC/C(C)=C/CC/C(C)=C/CC[C@]1(C)CCc2cc(O)c(C)c(C)c2O1 [Compound 56, γ-tocotrienol] | – | – | 20 µM | – | 4 µM
